From patent US6395684B1, “Selective herbicides based on a substituted phenyl sulfonyl amino carbonyl triazolinone” (Bayer Aktiengesellschaft, priority 1998, dated 2002)
Where a name gives a salt, the structure may show the parent alone.

Columns and labels:
Type in all cases: in vivo
Agropyron repens = assay: Post emergence tests/outdoors (Example C, Germany and France); conditions: 42 g of a.i./ha to 45 g of a.i./ha, post-emergence (spring), outdoors, winter wheat, 70 WP or 70 WG, 83 tests
Description: (§1) Post Emergence Tests/outdoors Under outdoor conditions, the sodium salt of the compound of the formula (I) was tested in winter wheat in Germany and France against economically important weeds. The small-plot experiments were carried out on cultivated land under agricultural use, with cultivation and climate conditions which can be considered to be representative for the period of the trial. Areas with particularly extensive weed growth were chosen by way of preference. The active compound was applied by the post-emergence method (spring) across the area by the spray method, with an average droplet size. To produce a useful preparation of active compound, the active compound was formulated as 70 WP or 70 WG (70% w/w water-dispersible powder or granules) and applied with customary amounts of water. To assess the crop compatibility, from 1 to 8 weeks after the treatment, plant growth inhibitions or […] of the leaf area were assessed in % damage in comparison to the development of the untreated control. At different intervals after the treatment, the herbicidal activity was assessed as % reduction in comparison to the untreated control, based on the weed development. The figures denote: 0%=no damage of the crops or no herbicidal effect, 100%=total destruction of the crops or the weeds.

Alopecurus myosuroides = assay: as above; conditions: 42 g of a.i./ha to 45 g of a.i./ha, post-emergence (spring), outdoors, winter wheat, 70 WP or 70 WG, 204 tests
Description: as §1

Apera spica-venti = assay: as above; conditions: 42 g of a.i./ha to 45 g of a.i./ha, post-emergence (spring), outdoors, winter wheat, 70 WP or 70 WG, 87 tests
Description: as §1

Capsella bursa-pastoris = assay: as above; conditions: 42 g of a.i./ha to 45 g of a.i./ha, post-emergence (spring), outdoors, winter wheat, 70 WP or 70 WG, 6 tests
Description: as §1

Poa annua = assay: as above; conditions: 42 g of a.i./ha to 45 g of a.i./ha, post-emergence (spring), outdoors, winter wheat, 70 WP or 70 WG, 5 tests
Description: as §1

Sinapis arvensis = assay: as above; conditions: 42 g of a.i./ha to 45 g of a.i./ha, post-emergence (spring), outdoors, winter wheat, 70 WP or 70 WG, 4 tests
Description: as §1

winter wheat [1] = assay: Post emergence tests/outdoors (Example C, Germany and France), crop compatibility; conditions: 42 g of a.i./ha to 45 g of a.i./ha, post-emergence (spring), outdoors, 1 to 8 weeks after the treatment, 439 tests
Description: as §1

winter wheat [2] = assay: Post-emergence tests/outdoors (Example D, USA), crop compatibility; conditions: 42 g a.i./ha to 45 g a.i./ha, post-emergence (autumn), outdoors, with surface-active substances (SAS), 78 tests
Description: The active compound was applied by the post-emergence method (spring) across the area by the spray method, with an average droplet size. To produce a useful preparation of active compound, the active compound was formulated as 70 WP or 70 WG (70% w/w water-dispersible powder or granules) and applied with customary amounts of water. To assess the crop compatibility, from 1 to 8 weeks after the treatment, plant growth inhibitions or […] of the leaf area were assessed in % damage in comparison to the development of the untreated control. At different intervals after the treatment, the herbicidal activity was assessed as % reduction in comparison to the untreated control, based on the weed development. The figures denote: 0%=no damage of the crops or no herbicidal effect, 100%=total destruction of the crops or the weeds. Post-emergence Tests/outdoors The sodium salt of the compound of the formula (I) was tested under outdoor conditions in the main cultivation areas of winter wheat in the USA (Pacific Northwest, North Central Area, Central Plains) against economically important weeds. The design, the practice and the evaluation of the experiments corresponded to Example C. The active compound was applied in autumn. Wetting of the plants was improved by addition of commercial surface-active substances (SAS) in the concentrations recommended by the respective manufacturer.

Structure (SMILES): CCCOc1nn(C(=O)NS(=O)(=O)c2ccccc2C(=O)OC)c(=O)n1C [(I)-Na-salt, 2-(2-methoxycarbonyl-phenylsulphonylaminocarbonyl)-4-methyl-5-propoxy-2,4-dihydro-3H-1,2,4-triazol-3-one]
- herbicidal effect (%) (Agropyron repens): 89%
- herbicidal effect (%) (Alopecurus myosuroides): 91%
- herbicidal effect (%) (Apera spica-venti): 94%
- herbicidal effect (%) (Capsella bursa-pastoris): 100%
- herbicidal effect (%) (Poa annua): 67%
- herbicidal effect (%) (Sinapis arvensis): 100%
- Damage to the crop (wheat) (winter wheat [1]): 2%
- Damage to the crop (wheat) (winter wheat [2]): 2%
